Laboratory results published in ChEMBL document CHEMBL1139273, “Aryl aminopyrazole benzamides as oral non-steroidal selective glucocorticoid receptor agonists” (Bioorg Med Chem Lett, 2009).

Tests used:
A549 = test: Inhibition of TNF-induced NFkappaB activation in human A549 cells after 15 hrs relative to Dexamethasone; assay type: cell-based; parameters: scale not given: the % may be the effect or the level left
Glucocorticoid receptor [1] = biological target: T1, Glucocorticoid receptor (Homo sapiens, UniProt P04150)
T1 sequence (P04150 whole entry): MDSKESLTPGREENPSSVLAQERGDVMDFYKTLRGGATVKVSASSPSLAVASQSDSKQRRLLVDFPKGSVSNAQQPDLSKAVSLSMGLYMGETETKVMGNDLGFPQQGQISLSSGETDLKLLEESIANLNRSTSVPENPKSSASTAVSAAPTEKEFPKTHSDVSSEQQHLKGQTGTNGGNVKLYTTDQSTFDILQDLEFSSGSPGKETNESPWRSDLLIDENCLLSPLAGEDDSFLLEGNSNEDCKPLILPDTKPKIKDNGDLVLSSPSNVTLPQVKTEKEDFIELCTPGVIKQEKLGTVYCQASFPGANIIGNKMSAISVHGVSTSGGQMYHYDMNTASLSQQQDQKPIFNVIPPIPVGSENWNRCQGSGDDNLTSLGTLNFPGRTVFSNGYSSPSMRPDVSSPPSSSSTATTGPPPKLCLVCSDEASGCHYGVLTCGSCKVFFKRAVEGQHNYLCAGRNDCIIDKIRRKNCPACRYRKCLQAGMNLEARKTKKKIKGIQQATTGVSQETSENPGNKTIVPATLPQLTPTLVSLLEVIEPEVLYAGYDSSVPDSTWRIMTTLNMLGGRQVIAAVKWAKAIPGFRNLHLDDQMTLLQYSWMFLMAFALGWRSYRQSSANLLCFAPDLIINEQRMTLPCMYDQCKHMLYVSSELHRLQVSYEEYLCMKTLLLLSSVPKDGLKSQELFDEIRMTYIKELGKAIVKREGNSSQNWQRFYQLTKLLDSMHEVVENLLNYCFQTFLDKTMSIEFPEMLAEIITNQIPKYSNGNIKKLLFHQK
Description: Displacement of fluorescent labelled Dexamethasone from glucocorticoid receptor

[2] = Inhibition of TNF-induced NF-kappaB activation in human A549 cells after 15 hrs; details: for IC50: Homo sapiens, A549, 15 h, read-out: pIC50 (converted); for pIC50: a549
Glucocorticoid receptor [3] = biological target: T1, Glucocorticoid receptor; remark: listed apart in the source
Description: Agonist activity at human glucocorticoid receptor in human A549 cells assessed as transcriptional activity by MMTV luciferase reporter gene assay

[4] = Clearance in Sprague-Dawley rat at 1 mg/kg, iv and 1 mg/kg, po; assay type: ADME, organism-based; details: in vivo
[5] = Volume of distribution at steady state in Sprague-Dawley rat at 1 mg/kg, iv and 1 mg/kg, po; assay type: ADME, organism-based; details: in vivo, read-out: Vdss
[6] = Oral bioavailability in Sprague-Dawley rat at 1 mg/kg; assay type: ADME, organism-based; details: in vivo
Cytochrome P450 2C19 = Cytochrome P450 2C19 (Homo sapiens, UniProt P33261); test: Inhibition of CYP2C19; assay type: ADME
Cytochrome P450 2D6 = Cytochrome P450 2D6 (Homo sapiens, UniProt P10635); test: Inhibition of CYP2D6; assay type: ADME
Cytochrome P450 2C9 = Cytochrome P450 2C9 (Homo sapiens, UniProt P11712); test: Inhibition of CYP2C9; assay type: ADME
Cytochrome P450 3A4 = Cytochrome P450 3A4 (Homo sapiens, UniProt P08684)
Cytochrome P450 1A2 = biological target: T2, Cytochrome P450 1A2 (Homo sapiens, UniProt P05177); test: Inhibition of CYP1A2; assay type: ADME
T2 sequence (P05177 whole entry): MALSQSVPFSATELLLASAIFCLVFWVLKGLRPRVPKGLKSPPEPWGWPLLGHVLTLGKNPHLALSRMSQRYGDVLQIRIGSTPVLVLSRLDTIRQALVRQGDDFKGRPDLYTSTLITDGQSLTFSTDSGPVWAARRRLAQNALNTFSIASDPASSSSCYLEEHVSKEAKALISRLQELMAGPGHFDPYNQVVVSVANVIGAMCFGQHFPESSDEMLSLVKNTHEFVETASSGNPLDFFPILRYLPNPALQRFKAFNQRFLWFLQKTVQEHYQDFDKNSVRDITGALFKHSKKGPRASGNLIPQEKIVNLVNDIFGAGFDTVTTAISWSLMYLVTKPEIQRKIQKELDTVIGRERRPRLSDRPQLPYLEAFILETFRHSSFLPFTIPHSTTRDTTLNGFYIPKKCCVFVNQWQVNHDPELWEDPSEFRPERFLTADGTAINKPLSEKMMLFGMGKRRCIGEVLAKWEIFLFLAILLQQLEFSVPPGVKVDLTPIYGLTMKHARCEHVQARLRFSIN

Albumin = Albumin (Homo sapiens, UniProt P02768); test: Binding affinity to human serum albumin by fast gradient HPLC; assay type: ADME; details: isolated protein
Chain of Albumin (P02768 whole entry): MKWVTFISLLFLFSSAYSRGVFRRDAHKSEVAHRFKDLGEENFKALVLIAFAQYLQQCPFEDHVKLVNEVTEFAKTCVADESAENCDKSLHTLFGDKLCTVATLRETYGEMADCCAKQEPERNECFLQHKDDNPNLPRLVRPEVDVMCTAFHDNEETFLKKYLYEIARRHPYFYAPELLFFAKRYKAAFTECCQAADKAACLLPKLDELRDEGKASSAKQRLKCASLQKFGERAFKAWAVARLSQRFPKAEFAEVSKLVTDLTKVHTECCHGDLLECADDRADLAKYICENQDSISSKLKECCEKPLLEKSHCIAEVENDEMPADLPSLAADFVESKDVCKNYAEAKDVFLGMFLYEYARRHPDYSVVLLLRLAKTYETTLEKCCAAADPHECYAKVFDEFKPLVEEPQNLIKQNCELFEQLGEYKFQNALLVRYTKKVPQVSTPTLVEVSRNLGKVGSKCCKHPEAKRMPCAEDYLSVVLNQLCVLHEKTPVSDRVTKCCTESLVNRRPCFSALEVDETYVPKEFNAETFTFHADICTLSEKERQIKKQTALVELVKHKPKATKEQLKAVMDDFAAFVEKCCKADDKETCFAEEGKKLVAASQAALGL

Chain of Cytochrome P450 3A4 (P08684 whole entry): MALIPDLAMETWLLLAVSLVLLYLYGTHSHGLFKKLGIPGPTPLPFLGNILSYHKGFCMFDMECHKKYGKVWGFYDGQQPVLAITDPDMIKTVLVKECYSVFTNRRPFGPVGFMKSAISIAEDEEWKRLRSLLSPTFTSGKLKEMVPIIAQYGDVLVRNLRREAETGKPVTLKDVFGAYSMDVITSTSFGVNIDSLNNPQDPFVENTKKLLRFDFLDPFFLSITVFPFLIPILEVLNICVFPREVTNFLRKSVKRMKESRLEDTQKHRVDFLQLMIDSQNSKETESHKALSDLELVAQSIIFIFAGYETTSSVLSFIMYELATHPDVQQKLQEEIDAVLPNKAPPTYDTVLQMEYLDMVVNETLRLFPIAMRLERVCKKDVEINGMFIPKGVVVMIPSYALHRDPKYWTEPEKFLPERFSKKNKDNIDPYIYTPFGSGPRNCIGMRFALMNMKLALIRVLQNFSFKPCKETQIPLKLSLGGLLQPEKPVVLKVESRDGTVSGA
Chain of Cytochrome P450 2D6 (P10635 whole entry): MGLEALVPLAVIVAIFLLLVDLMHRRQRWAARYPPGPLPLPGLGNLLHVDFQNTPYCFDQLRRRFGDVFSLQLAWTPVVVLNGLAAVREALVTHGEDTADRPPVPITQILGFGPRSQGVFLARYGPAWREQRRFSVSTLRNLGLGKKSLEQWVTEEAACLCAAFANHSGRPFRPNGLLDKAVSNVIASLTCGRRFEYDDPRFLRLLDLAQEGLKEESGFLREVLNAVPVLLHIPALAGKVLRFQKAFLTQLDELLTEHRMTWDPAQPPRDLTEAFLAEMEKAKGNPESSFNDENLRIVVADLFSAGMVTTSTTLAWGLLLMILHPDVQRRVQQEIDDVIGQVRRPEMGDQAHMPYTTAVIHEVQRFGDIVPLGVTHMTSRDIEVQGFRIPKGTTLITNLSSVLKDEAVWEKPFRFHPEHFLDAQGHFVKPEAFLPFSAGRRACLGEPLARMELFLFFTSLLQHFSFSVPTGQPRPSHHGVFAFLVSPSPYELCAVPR
Chain of Cytochrome P450 2C19 (P33261 whole entry): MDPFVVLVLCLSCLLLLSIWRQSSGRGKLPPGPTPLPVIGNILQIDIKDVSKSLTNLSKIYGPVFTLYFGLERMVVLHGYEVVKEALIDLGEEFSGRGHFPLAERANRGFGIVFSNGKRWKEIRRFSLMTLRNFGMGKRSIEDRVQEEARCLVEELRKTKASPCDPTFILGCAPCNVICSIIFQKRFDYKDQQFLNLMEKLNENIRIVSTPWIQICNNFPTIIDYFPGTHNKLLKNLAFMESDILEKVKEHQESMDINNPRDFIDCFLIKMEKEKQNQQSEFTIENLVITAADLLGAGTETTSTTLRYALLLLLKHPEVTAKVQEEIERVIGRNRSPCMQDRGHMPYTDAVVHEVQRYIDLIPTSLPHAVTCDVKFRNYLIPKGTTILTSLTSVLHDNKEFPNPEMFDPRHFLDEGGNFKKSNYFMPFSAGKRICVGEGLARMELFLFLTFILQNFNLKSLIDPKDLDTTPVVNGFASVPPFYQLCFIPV
Chain of Cytochrome P450 2C9 (P11712 whole entry): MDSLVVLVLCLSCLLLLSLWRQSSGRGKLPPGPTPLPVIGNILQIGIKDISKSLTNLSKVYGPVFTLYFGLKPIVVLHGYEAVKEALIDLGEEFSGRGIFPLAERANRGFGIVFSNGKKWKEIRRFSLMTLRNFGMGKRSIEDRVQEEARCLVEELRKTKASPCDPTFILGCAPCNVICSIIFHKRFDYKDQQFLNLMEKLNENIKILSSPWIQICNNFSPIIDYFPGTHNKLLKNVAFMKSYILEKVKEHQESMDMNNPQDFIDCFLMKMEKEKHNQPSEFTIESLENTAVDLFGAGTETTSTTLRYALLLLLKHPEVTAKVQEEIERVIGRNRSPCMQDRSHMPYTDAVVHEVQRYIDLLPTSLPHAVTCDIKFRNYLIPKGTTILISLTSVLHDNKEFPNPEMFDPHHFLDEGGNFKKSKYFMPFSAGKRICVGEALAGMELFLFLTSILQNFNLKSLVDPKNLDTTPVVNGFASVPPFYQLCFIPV

| Structure (SMILES) | Activity (A549) [%] | IC50 (Glucocorticoid receptor [1]) [nM] | IC50 [2] [nM] | EC50 (Glucocorticoid receptor [3]) [nM] | other results |
| --- | --- | --- | --- | --- | --- |
| CCN(CC(O)(CNC(=O)c1cnn(-c2ccc(F)cc2)c1N)C(F)(F)F)C(=O)c1ccc2[nH]ccc2c1 (stereo not given) | 100 | 6.31 | 1 | 3.16 | – |
| C[C@]12C=CC(=O)C=C1CC[C@@H]1[C@@H]2[C@@H](O)C[C@@]2(C)[C@H]1CC[C@]2(O)C(=O)CO [PREDNISOLONE] | 100 | – | 10 | – | – |
| CCN(CC(O)(CNC(=O)c1cnn(-c2ccc(F)cc2)c1N)C(F)(F)F)C(=O)c1ccccc1 (stereo in doubt; 13c) [listing 1 of 2 here] | – | 12.6 | – | 25.1 | pIC50 [2]: 8 |
| CCN(CC(O)(CNC(=O)c1cnn(-c2ccc(F)cc2)c1N)C(F)(F)F)C(=O)c1ncccc1Cl (racemic) | – | – | – | – | clearance [4]: 23 mL/min/kg; Vd [5]: 2.8 L/kg; bioavailability [6]: 48% |
| CCN(CC(O)(CNC(=O)c1cnn(-c2ccc(F)cc2)c1N)C(F)(F)F)C(=O)c1ccccc1 (stereo in doubt; 13b) | – | 126 | – | > 6310 | pIC50 [2]: < 5 |
| CCN(CC(O)(CNC(=O)c1cnn(-c2ccc(F)cc2)c1N)C(F)(F)F)C(=O)c1ccccc1 (racemic) [listing 1 of 2 here] | – | 50.1 | – | 50.1 | clearance [4]: 21 mL/min/kg; Vd [5]: 2.5 L/kg; pIC50 [2]: 7.3; bioavailability [6]: 12% |
| CCN(CC(O)(CNC(=O)c1cnn(-c2ccc(F)cc2)c1N)C(F)(F)F)C(=O)c1ccccc1Cl (racemic) | – | – | – | – | clearance [4]: 32 mL/min/kg; Vd [5]: 4 L/kg; bioavailability [6]: 25% |
| CCN(CC(O)(CNC(=O)c1cnn(-c2ccc(F)cc2)c1N)C(F)(F)F)C(=O)c1ccccc1Cl (stereo in doubt; 13d) [listing 1 of 2 here] | – | – | – | – | IC50 (Cytochrome P450 2C19): 8000 nM; IC50 (Cytochrome P450 2D6): 27000 nM; IC50 (Cytochrome P450 2C9): 4000 nM; IC50 (Cytochrome P450 3A4): 2000 nM; IC50 (Cytochrome P450 1A2): 100000 nM |
| CCN(CC(O)(CNC(=O)c1cnn(-c2ccc(F)cc2)c1N)C(F)(F)F)C(=O)c1ccccc1Cl (stereo in doubt; 13e) [listing 1 of 2 here] | 75 | – | – | – | – |
| CCN(CC(O)(CNC(=O)c1cnn(-c2ccc(F)cc2)c1N)C(F)(F)F)C(=O)c1c(Cl)cc(Cl)cc1Cl (racemic) | 100 | 6.31 | 25.1 | 50.1 | – |
| Nc1c(C(=O)NCC(O)(CNC(=O)c2c(F)cccc2F)C(F)(F)F)cnn1-c1ccc(F)cc1 (racemic) | 80 | 398 | 316 | > 6310 | – |
| CCN(CC(O)(CNC(=O)c1cnn(-c2ccc(F)cc2)c1N)C(F)(F)F)C(=O)c1ccc(Cl)cc1 (racemic) | – | 316 | > 10000 | > 6310 | – |
| CCN(CC(O)(CNC(=O)c1cnn(-c2ccc(F)cc2)c1N)C(F)(F)F)C(=O)c1ccccc1 (racemic) [listing 2 of 2 here] | 88 | – | – | – | – |
| CCN(CC(O)(CNC(=O)c1cnn(-c2ccc(F)cc2)c1N)C(F)(F)F)C(=O)c1ncccc1Cl (stereo not given) | 99 | – | – | – | – |
| CCN(CC(O)(CNC(=O)c1cnn(-c2ccc(F)cc2)c1N)C(F)(F)F)C(=O)c1ccccc1S(C)(=O)=O (stereo not given) [listing 1 of 2 here] | 99 | – | – | – | – |
| CCN(CC(O)(CNC(=O)c1cnn(-c2ccc(F)cc2)c1N)C(F)(F)F)C(=O)c1c(F)cccc1S(C)(=O)=O (racemic) | 103 | 50.1 | 10 | 25.1 | clearance [4]: 9 mL/min/kg; Vd [5]: 2.6 L/kg; bioavailability [6]: 62% |
| CCN(CC(O)(CNC(=O)c1cnn(-c2ccc(F)cc2)c1N)C(F)(F)F)C(=O)c1cccnc1Cl (racemic) | 75 | 39.8 | 251 | 794 | – |
| CCN(CC(O)(CNC(=O)c1cnn(-c2ccc(F)cc2)c1N)C(F)(F)F)C(=O)c1ccccc1Cl (stereo in doubt; 13d) [listing 2 of 2 here] | 95 | – | – | – | – |
| CN(CC(O)(CNC(=O)c1cnn(-c2ccc(F)cc2)c1N)C(F)(F)F)C(=O)c1c(F)cccc1F (racemic) | 95 | 79.4 | 50.1 | 251 | IC50 (Cytochrome P450 2C19): 49000 nM; IC50 (Cytochrome P450 2D6): 36000 nM; IC50 (Cytochrome P450 2C9): 10000 nM; IC50 (Cytochrome P450 3A4): 100000 nM; IC50 (Cytochrome P450 1A2): 100000 nM |
| CCN(CC(O)(CNC(=O)c1cnn(-c2ccc(F)cc2)c1N)C(F)(F)F)C(=O)c1cccc(F)c1Cl (racemic) | 92 | 7.94 | 20 | 50.1 | – |
| CCCN(CC(O)(CNC(=O)c1cnn(-c2ccc(F)cc2)c1N)C(F)(F)F)C(=O)c1c(F)cccc1F (racemic) | 96 | 15.8 | 15.8 | 25.1 | clearance [4]: 36 mL/min/kg; Vd [5]: 5.3 L/kg; bioavailability [6]: 16% |
| CCN(CC(O)(CNC(=O)c1cnn(-c2ccc(F)cc2)c1N)C(F)(F)F)C(=O)c1ccccc1Cl (stereo in doubt; 13e) [listing 2 of 2 here] | – | – | – | – | IC50 (Cytochrome P450 2C19): 20000 nM; IC50 (Cytochrome P450 2D6): 34000 nM; IC50 (Cytochrome P450 2C9): 10000 nM; IC50 (Cytochrome P450 3A4): 4000 nM; IC50 (Cytochrome P450 1A2): 100000 nM |
| CCN(CC(O)(CNC(=O)c1cnn(-c2ccc(F)cc2)c1N)C(F)(F)F)C(=O)c1ccccc1 (stereo in doubt; 13c) [listing 2 of 2 here] | 94 | – | – | – | – |
| CCN(CC(O)(CNC(=O)c1cnn(-c2ccc(F)cc2)c1N)C(F)(F)F)C(=O)c1ccccc1F (stereo not given) | 98 | 12.6 | 12.6 | 20 | – |
| CCN(CC(O)(CNC(=O)c1cnn(-c2ccc(F)cc2)c1N)C(F)(F)F)C(=O)c1ccccc1S(C)(=O)=O (stereo not given) [listing 2 of 2 here] | – | 63.1 | 20 | 158 | IC50 (Cytochrome P450 2C19): 87000 nM; IC50 (Cytochrome P450 2D6): 96000 nM; Activity (Albumin): 81%; IC50 (Cytochrome P450 2C9): 23000 nM; IC50 (Cytochrome P450 1A2): > 40000 nM |
| CCN(CC(O)(CNC(=O)c1cnn(-c2ccc(F)cc2)c1N)C(F)(F)F)C(=O)c1cccc(Cl)c1 (racemic) | 96 | 15.8 | 31.6 | 251 | – |
| CCN(CC(O)(CNC(=O)c1cnn(-c2ccc(F)cc2)c1N)C(F)(F)F)C(=O)c1ccccc1S(C)(=O)=O (racemic) | – | – | – | – | clearance [4]: 17 mL/min/kg; Vd [5]: 3.6 L/kg; bioavailability [6]: 77% |
| CCN(CC(O)(CNC(=O)c1cnn(-c2ccc(F)cc2)c1N)C(F)(F)F)C(=O)c1ccc(F)cc1Cl (racemic) | 76 | 20 | 100 | 316 | – |
